# Measurements as given in BindingDB's records for patent US20240182487 (Blossomhill Therapeutics, 2024).
# Columns and labels:
# Test in all cases: Biochemical Assay
# [1] = target: Epidermal growth factor receptor (Homo sapiens, UniProt P00533)
# Description: (§1) Biochemical Assays for Inhibition of Wild-Type and Mutant EGFRs.The inhibitory activities against EGFR WT, EGFR Δ752-759 mutant, EGFR Δ746-750/T790M mutant, EGFR Δ746-750/C797S mutant, EGFR Δ746-750/T790M/C797S mutant. […] Briefly, specific kinase/substrate pairs along with required cofactors were prepared in reaction buffer; 20 mM Hepes pH 7.5, 10 mM MgCl2, 1 mM EGTA, 0.02% Brij35, 0.02 mg/ml BSA, 0.1 mM Na3VO4, 2 mM DTT, 1% DMSO. Compounds were delivered into the reaction, followed 20 minutes later by addition of a mixture of ATP (Sigma, St. Louis MO) and 33P ATP (Perkin Elmer, Waltham MA) to a final concentration of 10 μM. Reactions were carried out at room temperature for 120 min, followed by spotting of the reactions onto P81 ion exchange filter paper (Whatman Inc., Piscataway, NJ). Unbound phosphate was removed by extensive washing of filters in 0.75% phosphoric acid.
# [2] = target: Epidermal growth factor receptor [L858R,C797S] (Human, UniProt P00533, C797S/L858R)
# Description: as §1
# [3] = target: Epidermal growth factor receptor [L858R,T790M,C797S] (Homo sapiens, UniProt P00533, C797S/L858R/T790M)
# Description: as §1
# [4] = target: Epidermal growth factor receptor [L858R] (Homo sapiens, UniProt P00533, L858R)
# Description: as §1
# [5] = target: Epidermal growth factor receptor [T790M,L858R] (Homo sapiens, UniProt P00533, L858R/T790M)
# Description: as §1
# Sequence of Epidermal growth factor receptor [L858R,C797S] (P00533 25-1210 C797S/L858R limits assumed): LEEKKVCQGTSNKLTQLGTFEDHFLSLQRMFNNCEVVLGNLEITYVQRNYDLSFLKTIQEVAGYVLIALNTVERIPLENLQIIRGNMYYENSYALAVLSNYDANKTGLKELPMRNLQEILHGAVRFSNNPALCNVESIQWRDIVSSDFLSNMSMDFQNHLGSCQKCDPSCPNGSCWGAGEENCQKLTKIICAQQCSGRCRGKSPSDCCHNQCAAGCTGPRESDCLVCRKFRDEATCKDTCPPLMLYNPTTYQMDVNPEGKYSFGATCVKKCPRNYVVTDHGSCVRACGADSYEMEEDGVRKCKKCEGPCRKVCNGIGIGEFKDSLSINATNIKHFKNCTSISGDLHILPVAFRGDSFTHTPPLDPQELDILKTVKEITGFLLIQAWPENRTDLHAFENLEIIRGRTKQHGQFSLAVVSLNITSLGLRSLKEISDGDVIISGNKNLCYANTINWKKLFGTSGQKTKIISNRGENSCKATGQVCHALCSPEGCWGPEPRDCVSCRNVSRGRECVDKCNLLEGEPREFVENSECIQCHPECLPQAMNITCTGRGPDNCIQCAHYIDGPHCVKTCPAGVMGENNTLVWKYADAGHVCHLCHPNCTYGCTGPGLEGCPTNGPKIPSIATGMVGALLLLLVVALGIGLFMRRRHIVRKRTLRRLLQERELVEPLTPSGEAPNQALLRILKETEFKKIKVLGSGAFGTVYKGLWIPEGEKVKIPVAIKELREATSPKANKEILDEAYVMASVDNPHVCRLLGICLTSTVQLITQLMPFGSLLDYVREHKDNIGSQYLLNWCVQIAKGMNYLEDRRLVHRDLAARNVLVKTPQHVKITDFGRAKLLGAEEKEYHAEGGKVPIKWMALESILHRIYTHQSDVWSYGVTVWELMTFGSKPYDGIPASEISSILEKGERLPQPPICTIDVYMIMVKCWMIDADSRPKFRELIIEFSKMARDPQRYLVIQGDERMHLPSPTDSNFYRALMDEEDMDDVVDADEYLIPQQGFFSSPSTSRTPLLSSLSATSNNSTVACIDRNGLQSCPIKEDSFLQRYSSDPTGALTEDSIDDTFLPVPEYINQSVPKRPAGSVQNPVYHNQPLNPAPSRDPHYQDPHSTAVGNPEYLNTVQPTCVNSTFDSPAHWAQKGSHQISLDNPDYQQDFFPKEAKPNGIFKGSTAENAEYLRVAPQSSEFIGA
# Sequence of Epidermal growth factor receptor (P00533 whole entry): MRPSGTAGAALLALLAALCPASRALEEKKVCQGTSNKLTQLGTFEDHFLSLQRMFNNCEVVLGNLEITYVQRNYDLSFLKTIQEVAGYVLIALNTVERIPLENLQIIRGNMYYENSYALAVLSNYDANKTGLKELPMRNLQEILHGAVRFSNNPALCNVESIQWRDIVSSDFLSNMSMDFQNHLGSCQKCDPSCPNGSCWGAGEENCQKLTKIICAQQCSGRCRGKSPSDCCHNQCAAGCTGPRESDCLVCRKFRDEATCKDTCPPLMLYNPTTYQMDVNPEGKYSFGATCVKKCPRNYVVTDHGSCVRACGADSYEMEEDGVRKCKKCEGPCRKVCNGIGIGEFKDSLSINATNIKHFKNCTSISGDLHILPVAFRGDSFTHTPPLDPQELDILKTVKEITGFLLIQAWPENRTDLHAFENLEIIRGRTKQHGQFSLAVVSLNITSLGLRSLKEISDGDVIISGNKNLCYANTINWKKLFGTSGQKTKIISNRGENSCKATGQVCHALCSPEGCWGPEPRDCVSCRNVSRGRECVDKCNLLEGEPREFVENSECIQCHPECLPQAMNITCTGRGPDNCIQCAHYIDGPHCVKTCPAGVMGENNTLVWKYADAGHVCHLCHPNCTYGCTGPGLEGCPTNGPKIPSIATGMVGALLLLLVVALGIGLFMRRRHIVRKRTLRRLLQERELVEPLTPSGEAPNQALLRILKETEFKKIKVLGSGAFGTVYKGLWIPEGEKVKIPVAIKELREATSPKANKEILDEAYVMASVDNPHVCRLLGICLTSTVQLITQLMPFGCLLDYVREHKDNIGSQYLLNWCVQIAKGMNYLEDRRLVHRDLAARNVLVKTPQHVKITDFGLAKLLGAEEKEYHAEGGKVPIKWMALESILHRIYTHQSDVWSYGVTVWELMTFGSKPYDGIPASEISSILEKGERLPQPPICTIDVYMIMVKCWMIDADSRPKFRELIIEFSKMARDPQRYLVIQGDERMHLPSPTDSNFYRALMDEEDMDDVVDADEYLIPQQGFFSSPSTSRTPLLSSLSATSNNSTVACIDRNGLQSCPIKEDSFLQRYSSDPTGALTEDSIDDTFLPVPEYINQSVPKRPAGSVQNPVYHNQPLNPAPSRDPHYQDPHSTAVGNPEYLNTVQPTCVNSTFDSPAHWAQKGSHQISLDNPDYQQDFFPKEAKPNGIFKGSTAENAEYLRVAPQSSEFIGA
# Sequence of Epidermal growth factor receptor [L858R,T790M,C797S] (P00533 25-1210 T790M/C797S/L858R limits assumed): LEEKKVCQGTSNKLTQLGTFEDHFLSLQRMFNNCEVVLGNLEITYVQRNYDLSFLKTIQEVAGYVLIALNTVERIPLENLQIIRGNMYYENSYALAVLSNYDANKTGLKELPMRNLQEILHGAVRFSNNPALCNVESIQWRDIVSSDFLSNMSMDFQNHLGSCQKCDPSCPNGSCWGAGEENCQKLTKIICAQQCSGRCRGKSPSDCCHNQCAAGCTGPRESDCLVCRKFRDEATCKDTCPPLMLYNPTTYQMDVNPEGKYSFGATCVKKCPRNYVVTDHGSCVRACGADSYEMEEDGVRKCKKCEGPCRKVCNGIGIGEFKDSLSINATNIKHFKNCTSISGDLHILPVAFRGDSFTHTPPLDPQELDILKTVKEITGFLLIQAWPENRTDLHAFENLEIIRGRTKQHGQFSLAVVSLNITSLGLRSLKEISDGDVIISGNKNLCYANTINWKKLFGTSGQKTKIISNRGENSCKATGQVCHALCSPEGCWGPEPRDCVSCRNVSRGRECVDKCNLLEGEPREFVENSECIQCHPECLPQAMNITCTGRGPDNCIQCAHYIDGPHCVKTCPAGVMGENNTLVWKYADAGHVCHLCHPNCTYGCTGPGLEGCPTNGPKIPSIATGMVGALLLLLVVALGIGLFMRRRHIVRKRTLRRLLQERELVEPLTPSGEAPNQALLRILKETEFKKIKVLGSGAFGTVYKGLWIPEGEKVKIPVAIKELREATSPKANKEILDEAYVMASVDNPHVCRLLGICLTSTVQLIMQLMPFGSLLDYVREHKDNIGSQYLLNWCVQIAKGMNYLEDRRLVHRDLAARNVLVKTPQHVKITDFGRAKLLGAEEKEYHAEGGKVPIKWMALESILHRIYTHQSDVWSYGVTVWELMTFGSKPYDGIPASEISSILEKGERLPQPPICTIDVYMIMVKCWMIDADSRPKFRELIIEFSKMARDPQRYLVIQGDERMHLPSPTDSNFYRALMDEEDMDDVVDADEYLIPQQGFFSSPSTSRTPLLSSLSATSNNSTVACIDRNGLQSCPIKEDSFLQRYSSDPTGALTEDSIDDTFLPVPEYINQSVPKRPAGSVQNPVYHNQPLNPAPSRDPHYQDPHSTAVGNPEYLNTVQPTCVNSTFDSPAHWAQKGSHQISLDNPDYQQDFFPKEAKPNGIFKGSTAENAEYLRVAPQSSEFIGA
# Sequence of Epidermal growth factor receptor [L858R] (P00533 25-1210 L858R limits assumed): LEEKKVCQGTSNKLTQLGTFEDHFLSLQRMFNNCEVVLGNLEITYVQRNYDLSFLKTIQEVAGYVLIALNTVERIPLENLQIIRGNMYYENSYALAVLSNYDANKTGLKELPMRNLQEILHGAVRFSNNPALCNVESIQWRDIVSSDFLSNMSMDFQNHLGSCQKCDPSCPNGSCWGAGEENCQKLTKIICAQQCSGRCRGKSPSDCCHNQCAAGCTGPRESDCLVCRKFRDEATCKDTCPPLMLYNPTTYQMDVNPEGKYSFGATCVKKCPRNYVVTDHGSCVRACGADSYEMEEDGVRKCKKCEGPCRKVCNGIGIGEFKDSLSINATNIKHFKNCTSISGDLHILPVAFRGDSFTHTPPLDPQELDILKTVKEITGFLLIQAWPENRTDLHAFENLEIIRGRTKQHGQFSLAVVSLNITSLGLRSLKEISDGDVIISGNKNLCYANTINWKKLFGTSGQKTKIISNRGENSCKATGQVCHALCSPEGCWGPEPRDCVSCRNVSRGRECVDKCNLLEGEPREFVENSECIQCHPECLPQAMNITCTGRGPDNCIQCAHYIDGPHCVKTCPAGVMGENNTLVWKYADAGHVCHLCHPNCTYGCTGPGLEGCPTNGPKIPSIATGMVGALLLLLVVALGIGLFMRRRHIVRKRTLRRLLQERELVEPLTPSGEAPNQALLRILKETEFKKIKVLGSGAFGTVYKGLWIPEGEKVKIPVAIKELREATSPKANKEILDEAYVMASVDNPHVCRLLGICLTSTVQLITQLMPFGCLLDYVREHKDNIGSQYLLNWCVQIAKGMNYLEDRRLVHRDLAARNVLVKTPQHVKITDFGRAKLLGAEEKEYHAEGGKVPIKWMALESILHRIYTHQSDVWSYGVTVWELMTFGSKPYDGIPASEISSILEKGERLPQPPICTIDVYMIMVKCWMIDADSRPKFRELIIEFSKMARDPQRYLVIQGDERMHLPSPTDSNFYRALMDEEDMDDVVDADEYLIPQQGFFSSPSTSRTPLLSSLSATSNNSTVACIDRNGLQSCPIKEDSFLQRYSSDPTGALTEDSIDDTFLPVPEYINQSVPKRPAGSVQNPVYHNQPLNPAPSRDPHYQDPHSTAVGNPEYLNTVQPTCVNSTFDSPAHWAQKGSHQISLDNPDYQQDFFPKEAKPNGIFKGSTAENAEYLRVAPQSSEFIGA
SMILES,IC50 [1] [nM],IC50 [2] [nM],IC50 [3] [nM],IC50 [4] [nM],IC50 [5] [nM]
"Cn1ncc2c1COCCOc1ccccc1/C=C/c1n[nH]c3cnc-2nc13 [US20240182487, Compound 16]",551,481,263,350,168
"CCc1c2c(nn1C)C(=O)N(C)CCOc1c[nH]c(=O)cc1-c1cc3c(n[nH]c3cn1)/C=C/2 [US20240182487, Compound 38]",,,1130,,
"CCc1nn(C)c2c1/C=C/c1n[nH]c3cnc(cc13)-c1cc(F)ccc1OCCN(C)C2=O [US20240182487, Compound 62]",306,104,32.4,136,36.3
"CCc1c2c(nn1C)C(=O)N(C)CCCOc1cnc(OC)cc1-c1cc3c(n[nH]c3cn1)/C=C/2 [US20240182487, Compound 64]",,,,> 10000,
"Cc1ccc2c(n1)/C=C/c1n[nH]c3cnc(nc13)-c1cnn(C)c1C(C)OCCO2 (configuration not stated) [US20240182487, Compound 65]",438,,91.2,140,23.4
"CCc1c2c(nn1C)C(=O)N(C)CCOc1cnc(OC)cc1-c1cc3c(n[nH]c3cn1)/C=C/2 [US20240182487, Compound 66]",,,,> 10000,
"COC(=O)c1ccc2c(c1)OCCCOc1c(cnn1C)-c1cc3c(n[nH]c3cn1)/C=C/2 [US20240182487, Compound 67]",1000,,112,1720,
"COC(=O)c1ccc2c(c1)/C=C/c1n[nH]c3cnc(cc13)-c1cnn(C)c1OCCCO2 [US20240182487, Compound 68]",159,,16.6,,
"COC(=O)c1ccc2c(c1)OCCOCc1c(cnn1C)-c1cc3c(n[nH]c3cn1)/C=C/2 [US20240182487, Compound 69]",,,98.3,,
"COC(=O)c1ccc2c(c1)/C=C/c1n[nH]c3cnc(cc13)-c1cnn(C)c1COCCO2 [US20240182487, Compound 75]",938,,184,165,
"CCNC(=O)c1ccc2c(c1)OCCOCc1c(cnn1C)-c1cc3c(n[nH]c3cn1)/C=C/2 [US20240182487, Compound 84]",884,,160,433,
"Cn1ncc2c1COCCOc1ccc(C(=O)O)cc1/C=C/c1n[nH]c3cnc-2cc13 [US20240182487, Compound 92]",271,,55.5,66.4,
"Cc1ccc2c(n1)/C=C/c1n[nH]c3cnc(cc13)-c1cnn(C)c1C(C)OCCO2 (configuration not stated) [US20240182487, Compound 95]",91.6,,35,74.9,
"CN1CCN(C(=O)c2ccc3c(c2)/C=C/c2n[nH]c4cnc(cc24)-c2cnn(C)c2COCCO3)CC1 [US20240182487, Compound 96]",586,,343,470,
"Cc1nc2cc3c(n[nH]c13)/C=C/c1cc(F)ccc1OCCCOc1c-2cnn1C [US20240182487, Compound 98]",1240,,192,1110,

# The next lines start with the values.
IC50 [1] [nM],IC50 [2] [nM],IC50 [3] [nM],IC50 [4] [nM],IC50 [5] [nM],SMILES
98.4,61.9,8.8,50,5.8,"Cn1ncc2c1COCCOc1ccccc1/C=C/c1n[nH]c3cnc-2cc13 [US20240182487, Compound 63]"
5.9,,5.3,2.2,,"CN(C)CCCNC(=O)c1ccc2c(c1)/C=C/c1n[nH]c3cnc(cc13)-c1cnn(C)c1OCCCO2 [US20240182487, Compound 70]"
48.7,,64.7,23.7,,"Cn1ncc2c1OCCCOc1ccc(C(=O)N3CCCC3)cc1/C=C/c1n[nH]c3cnc-2cc13 [US20240182487, Compound 72]"
88.6,,220,39,,"Cn1ncc2c1OCCCOc1cc(C(=O)O)ccc1/C=C/c1n[nH]c3cnc-2cc13 [US20240182487, Compound 73]"
5.7,,8.3,2.8,,"CN(C)CCNC(=O)c1ccc2c(c1)OCCCOc1c(cnn1C)-c1cc3c(n[nH]c3cn1)/C=C/2 [US20240182487, Compound 74]"
,,3.1,1.2,,"CN1CCC(CNC(=O)c2ccc3c(c2)/C=C/c2n[nH]c4cnc(cc24)-c2cnn(C)c2OCCCO3)CC1 [US20240182487, Compound 76]"
,,172,57.9,,"CC(C)NC(=O)c1ccc2c(c1)OCCCOc1c(cnn1C)-c1cc3c(n[nH]c3cn1)/C=C/2 [US20240182487, Compound 77]"
6.2,,10.6,2.9,,"CN1CCC(NC(=O)c2ccc3c(c2)OCCCOc2c(cnn2C)-c2cc4c(n[nH]c4cn2)/C=C/3)CC1 [US20240182487, Compound 78]"
9.8,,12,5.4,,"CN1CC[C@@H](NC(=O)c2ccc3c(c2)OCCCOc2c(cnn2C)-c2cc4c(n[nH]c4cn2)/C=C/3)C1 [US20240182487, Compound 82]"
11.2,,13.8,6,,"CN1CC(NC(=O)c2ccc3c(c2)OCCCOc2c(cnn2C)-c2cc4c(n[nH]c4cn2)/C=C/3)C1 [US20240182487, Compound 83]"
140,,31,40.7,,"CN1CCC(NC(=O)c2ccc3c(c2)OCCOCc2c(cnn2C)-c2cc4c(n[nH]c4cn2)/C=C/3)CC1 [US20240182487, Compound 85]"
24.1,,8.8,4.9,,"CNC(=O)c1ccc2c(c1)/C=C/c1n[nH]c3cnc(cc13)-c1cnn(C)c1OCCCO2 [US20240182487, Compound 86]"
80.1,,17.2,16.3,,"CN1CC[C@@H](NC(=O)c2ccc3c(c2)OCCOCc2c(cnn2C)-c2cc4c(n[nH]c4cn2)/C=C/3)C1 [US20240182487, Compound 87]"
19.3,,10.3,4.1,,"CN1CC[C@H](NC(=O)c2ccc3c(c2)OCCCOc2c(cnn2C)-c2cc4c(n[nH]c4cn2)/C=C/3)C1 [US20240182487, Compound 88]"
158,,,32,,"CCNC(=O)c1ccc2c(c1)/C=C/c1n[nH]c3cnc(cc13)-c1cnn(C)c1COCCO2 [US20240182487, Compound 89]"
73.7,,8.6,22.2,,"CN(C)CCNC(=O)c1ccc2c(c1)/C=C/c1n[nH]c3cnc(cc13)-c1cnn(C)c1COCCO2 [US20240182487, Compound 90]"
97.2,,10.2,28.2,,"CN(C)CCCNC(=O)c1ccc2c(c1)/C=C/c1n[nH]c3cnc(cc13)-c1cnn(C)c1COCCO2 [US20240182487, Compound 91]"
55.8,,4.2,7.2,,"CN1CCC(NC(=O)c2ccc3c(c2)/C=C/c2n[nH]c4cnc(cc24)-c2cnn(C)c2COCCO3)CC1 [US20240182487, Compound 93]"
101,,9.9,9.2,,"CN1CCC(CNC(=O)c2ccc3c(c2)/C=C/c2n[nH]c4cnc(cc24)-c2cnn(C)c2COCCO3)CC1 [US20240182487, Compound 94]"
3.1,,3.4,4.5,,"CN1CCC(NC(=O)c2ccc3c(c2)/C=C/c2n[nH]c4cnc(cc24)-c2cnn(C)c2OCCCO3)CC1 [US20240182487, Compound 97]"
33.5,50.2,,25.5,> 10000,"CN1CCOCCN(c2ccc(F)c(Cl)c2)c2cc3c(n[nH]c3cn2)/C=C/c2cn(C)nc2C1=O [US20240182487, Compound 99]"
176,,27.5,13.9,,"Cn1ncc2c1OCCCOc1ccc(F)cc1/C=C/c1n[nH]c3cnc-2cc13 [US20240182487, Compound 100]"
